pIC50: −log10 of the molar value.

Assay [1] addresses T1, BTK C481S enzyme (His-TEV-hsBTK(328-659)(C481S)) (Homo sapiens, UniProt Q06187, C481S).
T1 construct: His-TEV-hsBTK(328-659)(C481S); His (N); TEV cleavage site (N)
Briefly: Assay B: microfluidic off-chip mobility shift assay for potency against BTK C481S enzyme. It counts as biochemical. As to conditions: 90 min at 25° C. The text has this: Assay B: Microfluidic Off-Chip Mobility Shift Assay Protocol for Potency Assessment Against BTK C481S Enzyme
The protocol below describes a microfluidic, off-chip mobility shift kinase assay to measure inherent potency of compounds against BTK C481S enzyme. The mechanics of the assay platform are described by the vendor (PerkinElmer, Hopkinton, Mass.) on their website at the following URL: http://caliperls.com.
Briefly, 2.5× stocks of His-TEV-hsBTK(328-659)(C481S) from the Merck Serono Protein Purification Laboratory in Darmstadt, Germany (PCS, Q27/234), 1.6×ATP and appropriate KinKDR peptide substrate (FITC-AHA-EEPLYWSFPAKKK-NH2; Tufts University Core Facility custom synthesis) were prepared in kinase reaction buffer consisting of 25 mM MgCl2, 0.015% Brij-35 (30%), 100 mM HEPES, pH 7.5, and 10 mM DTT.
5 uL of enzyme buffer and 7.5 uL of ATP/KinKDR peptide substrate mix were added to Matrix (#4315) 384-well, sterile, flat-bottom polypropylene plates (Thermo Fisher Scientific, Hudson, N.H.) with 125 nL of serially diluted compounds prepared in 100% DMSO, and incubated for 90 min. at 25° C. Following the incubation period, reactions were terminated by adding 65 uL quench buffer consisting of 100 mM HEPES, pH 7.5, 0.015% Brij-35 (30%), 0.277% Coating Reagent #3 (PerkinElmer, Mountain View, Calif.), 5% DMSO. Terminated reactions were monitored at −2 PSI, −3000 V/−700 Volts in a LabChip 3000 plate reader from Caliper Life Sciences, a PerkinElmer Company (Hopkinton, Mass.), and the activity was quantified by laser-induced fluorescence measuring the charge/mass difference between substrate and product resulting from peptide phosphorylation. IC50 and efficacy were determined by plotting log [Inhibitor] vs. % Activity in GeneData Screener (Basel, Switzerland).

The target of another assay is T2, full-length human BTK (Homo sapiens, UniProt Q06187).
T2 construct: full-length human BTK (08-080) from CarnaBio USA, Inc; purchased CarnaBio USA, Inc., Natick, Mass; 08-080
Briefly: Assay A: microfluidic off-chip mobility shift assay for potency against BTK enzyme. Format: biochemical. The conditions noted are these: 90 min at 27° C. The source says:
Assay A: Microfluidic Off-Chip Mobility Shift Assay Protocol for Potency Assessment Against BTK Enzyme
The protocol below describes microfluidic, off-chip mobility shift kinase assay to measure inherent potency of compounds against BTK enzyme. The mechanics of the assay platform are best described by the vendor (Caliper Life Sciences, a PerkinElmer Company, Hopkinton, Mass.) on their website at the following URL:
Briefly, 2.5× stocks of full-length human BTK (08-080) from CarnaBio USA, Inc., Natick, Mass., 1.6×ATP and appropriate kinKDR peptide substrate (FITC-AHA-EEPLYWSFPAKKK-NH2; developed in-house) were prepared in kinase reaction buffer consisting of 25 mM MgCl2, 0.015% Brij-35 (30%), 100 mM Hepes, pH 7.5, and 10 mM DTT.
5 uL of enzyme buffer and 7.5 uL of ATP/kinKDR peptide substrate mix were added to Matrix (#115304) 384-well, sterile, polypropylene plates (Thermo Fisher Scientific, Hudson, N.H.) with 125 nL of serially diluted compounds prepared in 100% DMSO, and incubated for 90 min. at 27° C. following the incubation period, reactions were stopped by adding 60 uL stop buffer consisting of 100 mM Hepes, pH 7.5, 0.015% Brij-35 (30%), 0.277% Coating Reagent #3 (Caliper Life Sciences, Mountain View, Calif.), 5% DMSO. Stopped reactions were monitored at −2 PSI, −3000 V/−700 V in a LabChip 3000 plate reader from Caliper Life Sciences, a PerkinElmer Company (Hopkinton, Mass.), and the activity was measured by off-chip mobility shift assay measuring the charge/mass difference between substrate and product resulting from peptide phosphorilation. IC50 and efficacy were determined by plotting log [Inhibitor] vs. % Activity in GeneData Screener (Basel, Switzerland).

T1 sequence (Q06187 328-659 C481S): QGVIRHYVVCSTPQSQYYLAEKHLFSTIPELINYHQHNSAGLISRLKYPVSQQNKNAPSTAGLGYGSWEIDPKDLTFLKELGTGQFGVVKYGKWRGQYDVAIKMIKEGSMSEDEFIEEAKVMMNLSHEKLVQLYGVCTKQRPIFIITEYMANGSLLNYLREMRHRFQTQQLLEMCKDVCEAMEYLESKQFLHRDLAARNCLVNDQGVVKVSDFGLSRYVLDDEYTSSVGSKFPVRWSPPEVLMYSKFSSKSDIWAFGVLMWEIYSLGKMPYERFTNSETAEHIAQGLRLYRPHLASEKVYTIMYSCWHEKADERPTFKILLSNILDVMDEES
T2 sequence (Q06187 whole entry): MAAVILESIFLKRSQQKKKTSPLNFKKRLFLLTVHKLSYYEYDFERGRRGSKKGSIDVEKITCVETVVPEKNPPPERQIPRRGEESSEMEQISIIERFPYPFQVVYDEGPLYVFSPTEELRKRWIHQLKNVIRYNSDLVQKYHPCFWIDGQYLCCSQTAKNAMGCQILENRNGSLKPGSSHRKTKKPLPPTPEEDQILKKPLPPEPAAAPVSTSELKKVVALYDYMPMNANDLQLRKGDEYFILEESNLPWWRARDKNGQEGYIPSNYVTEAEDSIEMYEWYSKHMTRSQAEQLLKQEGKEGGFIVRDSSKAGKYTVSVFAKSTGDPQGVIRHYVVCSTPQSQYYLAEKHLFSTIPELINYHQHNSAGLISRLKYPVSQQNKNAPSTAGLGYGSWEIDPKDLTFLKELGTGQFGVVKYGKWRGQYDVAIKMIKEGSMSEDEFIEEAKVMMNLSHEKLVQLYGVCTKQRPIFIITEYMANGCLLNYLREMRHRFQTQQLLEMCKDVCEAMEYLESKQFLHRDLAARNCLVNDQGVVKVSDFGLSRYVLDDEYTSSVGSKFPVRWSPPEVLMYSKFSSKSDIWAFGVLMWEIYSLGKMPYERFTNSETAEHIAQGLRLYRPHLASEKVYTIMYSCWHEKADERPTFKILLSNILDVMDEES

As for `COCCOc1ccc(Nc2ncc(F)c(NC3CCCC(NC(=O)c4cc(C(C)(C)C)on4)C3O)n2)cc1` (racemic) [Compound 27], the pIC50 (in assay [1]; at full-length human BTK) was 6.00 to 7.00 each time.
Turning to `COCCOc1ccc(Nc2ncc(F)c(N[C@@H]3CCC[C@@H](NC(=O)c4ccc(C(C)(C)C)cc4)C3)n2)cc1` (racemic) [Compound 19, 4-(tert-butyl)-N-(trans-3-((5-fluoro-2-((4-(2-methoxyethoxy)phenyl)amino)pyrimidin-4-yl)amino)cyclohexyl)benzamide], the pIC50 (in assay [1]; at full-length human BTK) was greater than 7.00 throughout.
With `COCCOc1ccc(Nc2ncc(F)c(Nc3cccc(NC(=O)c4ccc(C(C)(C)C)cc4)c3)n2)cc1` [Compound 6], the negative-log IC50 (pIC50) (in assay [1]; on full-length human BTK) was 5.30 to 6.00 throughout.
Take `COCCOc1ccc(Nc2ncc(F)c(NCC3CCN(C(=O)c4ccc(C(C)(C)C)cc4)C3)n2)cc1` (racemic) [Compound 8, (4-(tert-butyl)phenyl)(3-(((5-fluoro-2-((4-(2-methoxyethoxy)phenyl)amino)pyrimidin-4-yl)amino)methyl)pyrrolidin-1-yl)methanone]: at full-length human BTK, the pIC50 (in general, −log10 of the IC50, conventionally taken in molar units) is less than 5.30.
For `COCCOc1ccc(Nc2ncc(F)c(Nc3cccc(NC(=O)CNc4cccc(Cl)c4)c3)n2)cc1` [Compound 4, 2-((3-chlorophenyl)amino)-N-(3-((5-fluoro-2-((4-(2-methoxyethoxy)phenyl)amino)pyrimidin-4-yl)amino)phenyl)acetamide], the pIC50 in assay [1] is 6.00 to 7.00; at full-length human BTK, 5.30 to 6.00.
For `COCCOc1ccc(Nc2ncc(F)c(N[C@H]3CCC[C@H](NC(=O)c4ccc(C(C)(C)C)cc4)C3)n2)cc1` [Compound 23, 4-(tert-butyl)-N-((1S,3S)-3-((5-fluoro-2-((4-(2-methoxyethoxy)phenyl)amino)pyrimidin-4-yl)amino)cyclohexyl)benzamide], on full-length human BTK, the negative-log IC50 (pIC50) was 5.30 to 6.00.
Take `COCCOc1ccc(Nc2ncc(F)c(NC3CCCC(NC(=O)c4ccc(N(C)C)cc4)C3)n2)cc1` (centres unmarked) [Compound 11, 4-Dimethylamino-N-(3-{5-fluoro-2-[4-(2-methoxy-ethoxy)-phenylamino]-pyrimidin-4-ylamino}-cyclohexyl)-benzamide]: the pIC50 (in assay [1]; at full-length human BTK) was 6.00 to 7.00 in each case.
`COCCOc1ccc(Nc2ncc(F)c(N3CC[C@H](NC(=O)c4ccc(C(C)(C)C)cc4)C3)n2)cc1` [Compound 9, (S)-4-(tert-butyl)-N-(1-(5-fluoro-2-((4-(2-methoxyethoxy)phenyl)amino)pyrimidin-4-yl)pyrrolidin-3-yl)benzamide]: at full-length human BTK, the pIC50 is less than 5.30.
Still for that read-out and setting: next, `COCCOc1ccc(Nc2ncc(F)c(N3CCCC4(CCN(C(=O)c5ccc(C(C)(C)C)cc5)C4)C3)n2)cc1` (centres unmarked) [Compound 15, (4-(tert-butyl)phenyl)(7-(5-fluoro-2-((4-(2-methoxyethoxy)phenyl)amino)pyrimidin-4-yl)-2,7-diazaspiro[4.5]decan-2-yl)methanone]: less than 5.30; `COCCOc1ccc(Nc2ncc(F)c(N3CCCC(CNC(=O)c4ccc(C(C)(C)C)cc4)C3)n2)cc1` (racemic) [Compound 7, 4-(tert-butyl)-N-((1-(5-fluoro-2-((4-(2-methoxyethoxy)phenyl)amino)pyrimidin-4-yl)piperidin-3-yl)methyl)benzamide]: less than 5.30; `COCCOc1ccc(Nc2ncc(F)c(N[C@@H]3CCC[C@@H](NC(=O)c4ccc(C(C)(C)C)cc4)C3)n2)cc1` [Compound 22, 4-(tert-butyl)-N-((1R,3R)-3-((5-fluoro-2-((4-(2-methoxyethoxy)phenyl)amino)pyrimidin-4-yl)amino)cyclohexyl) benzamide]: greater than 7.00.
In the case of `COCCOc1ccc(Nc2ncc(F)c(N3CCC[C@@H](NC(=O)c4ccc(C(C)(C)C)cc4)C3)n2)cc1` [Compound 1, (R)0-4-(tert-butyl)-N-(1-(5-fluoro-2-((4-(2-methoxyethoxy)phenyl)amino)pyrimidin-4-yl)piperidin-3-yl)benzamide], the pIC50 at full-length human BTK is less than 5.30.
In the case of `COCCOc1ccc(Nc2ncc(F)c(NC3CCCC(NC(=O)c4cc5c(s4)CCCC5)C3O)n2)cc1` (racemic) [Compound 26], the pIC50 (in assay [1]; on full-length human BTK) was greater than 7.00 in each case.
Consider `COCCOc1ccc(Nc2ncc(F)c(NC3CCCC(NC(=O)c4coc(-c5ccccc5)n4)C3)n2)cc1` (centres unmarked) [Compound 14, 2-Phenyl-oxazole-4-carboxylic acid (3-{5-fluoro-2-[4-(2-methoxy-ethoxy)-phenylamino]-pyrimidin-4-ylamino}-cyclohexyl)-amide], for which the pIC50 on full-length human BTK is less than 5.30.
Same read-out and setting: next, `COCCOc1ccc(Nc2ncc(F)c(N3CC4CN(C(=O)c5ccc(C(C)(C)C)cc5)CC4C3)n2)cc1` (centres unmarked) [Compound 18, (4-(tert-butyl)phenyl)(5-(5-fluoro-2-((4-(2-methoxyethoxy)phenyl)amino)pyrimidin-4-yl)hexahydropyrrolo[3,4-c]pyrrol-2(1H)-yl)methanone]: less than 5.30; `COCCOc1ccc(Nc2ncc(F)c(N3CCC4CN(C(=O)c5ccc(C(C)(C)C)cc5)CC43)n2)cc1` (centres unmarked) [Compound 20, (4-(tert-butyl)phenyl)(1-(5-fluoro-2-((4-(2-methoxyethoxy)phenyl)amino)pyrimidin-4-yl)hexahydropyrrolo[3,4-b]pyrrol-5(1H)-yl)methanone]: less than 5.30; `COCCOc1ccc(Nc2ncc(F)c(NC3CCCC(NC(=O)Cc4ccc(C(C)(C)C)cc4)C3)n2)cc1` (centres unmarked) [Compound 13, 2-(4-tert-Butyl-phenyl)-N-(3-{5-fluoro-2-[4-(2-methoxy-ethoxy)-phenylamino]-pyrimidin-4-ylamino}-cyclohexyl)-acetamide]: less than 5.30.
On the same count and under the same terms, next, `COCCOc1ccc(Nc2ncc(F)c(N3CCCC4(CCCN(C(=O)c5ccc(C(C)(C)C)cc5)C4)C3)n2)cc1` (centres unmarked) [Compound 21, (4-(tert-butyl)phenyl)(8-(5-fluoro-2-((4-(2-methoxyethoxy)phenyl)amino)pyrimidin-4-yl)-2,8-diazaspiro[5.5]undecan-2-yl)methanone]: less than 5.30.
In the case of `COCCOc1ccc(Nc2ncc(F)c(N3CCC(CNC(=O)c4ccc(C(C)(C)C)cc4)C3)n2)cc1` (racemic) [Compound 17, 4-(tert-butyl)-N-((1-(5-fluoro-2-((4-(2-methoxyethoxy)phenyl)amino)pyrimidin-4-yl)pyrrolidin-3-yl)methyl)benzamide], the pIC50 at full-length human BTK was less than 5.30.
Regarding `COCCOc1ccc(Nc2ncc(F)c(N[C@H]3CCC[C@H](NC(=O)c4ccc(C(C)(C)C)cc4)[C@H]3O)n2)cc1` [Compound 25], on full-length human BTK, the pIC50 is 5.30 to 6.00.
On to `COCCOc1ccc(Nc2ncc(F)c(NC3CCCC(NC(=O)c4ccc(C(C)(C)C)cc4)C3)n2)cc1` (racemic) [Compound 3, 4-(tert-butyl)-N-(3-((5-fluoro-2-((4-(2-methoxyethoxy)phenyl)amino)pyrimidin-4-yl)amino)cyclohexyl)benzamide], for which the pIC50 (in assay [1]; at full-length human BTK) was 6.00 to 7.00 each time.
In the case of `COCCOc1ccc(Nc2ncc(F)c(NC3CCCC(NC(=O)CNc4cccc(Cl)c4)C3)n2)cc1` (racemic) [Compound 5], the pIC50 (in assay [1]; at full-length human BTK) was 5.30 to 6.00 in each case.
Regarding `COCCOc1ccc(Nc2ncc(F)c(NC3CCCC(NC(=O)c4ccc(C(C)(C)O)cc4)C3)n2)cc1` (centres unmarked) [Compound 12, N-(3-{5-Fluoro-2-[4-(2-methoxy-ethoxy)-phenylamino]-pyrimidin-4-ylamino}-cyclohexyl)0-4-(1-hydroxy-1-methyl-ethyl)-benzamide], the pIC50 (in assay [1]; at full-length human BTK) was 6.00 to 7.00 in each case.

(Values after patent publication US10045985B2, “Heteroaryl compounds as BTK inhibitors and uses thereof” (Merck Patent GmbH, priority 2015, dated 2018).)
